Here are results for two compounds from PMC8835363, “Arachidin-1, a Prenylated Stilbenoid from Peanut, Induces Apoptosis in Triple-Negative Breast Cancer Cells” (International Journal of Molecular Sciences, 2022).

For one series, the system named is MDA-MB-231 cells. Nature of the series: RealTime-Glo MT cell viability (cytotoxicity) assay. The class given is cell-based, human. Particulars: MDA-MB-231; for IC50: Homo sapiens. As to the method: (§1) The cytotoxicity of RES, A-1, and A-3 was measured using the RealTime-Glo^TM MT Cell Viability Assay (Promega, Madison, WI, USA). The cells (10,000 cells/well) were seeded into 96-well plates. […] Cells with 0.1% DMSO (ATCC; Manassas, VA, USA) were included as a control. Luminescence was measured every 12 h for 72 total hours in a Cytation^TM 5 (BioTek, Winooski, VT, USA) plate reader. All experiments were performed in triplicates.

In another series the test system is MDA-MB-436 cells. Described as above. The format is cell-based, human. Particulars: MDA-MB-436. Here is the method: as §1
A further series deals with MCF-7 cells. The arrangement: method as in PMID 32721999, PMID 33643572. Conditions: cited from earlier work.
The next series relates to MDA-MB-231. The arrangement: method as in PMID 32721999, PMID 33643572. Conditions: 24 h treatment, MTT assay; cited from earlier work. (In general: Tetrazolium dyes change colour on reduction, which living cells bring about.)
The test system of series [1] is human leukemia HL-60 cell line. The arrangement: method as in PMID 21067217. Conditions: 72 h treatment; cited from earlier work.
The subject of series [2] is UDP-glucuronosyltransferases. Particulars: in vitro metabolism; cited from earlier work.
[3] abbreviates: MDA-MB-231, 24 h, 24 h, in Figure 2 panels.
Setting [4] is: MDA-MB-231, 24 h, 24 h of treatment.
The mark [5] stands for this setting: MDA-MB-231, 48 h, 48 h of treatment.
[6] abbreviates: MDA-MB-231, 72 h, 72 h of treatment.
The mark [7] stands for this setting: Homo sapiens, MDA-MB-436, 24 h, 24 h.
Where [8] appears, read: Homo sapiens, MDA-MB-436, 24 h, 24 h, in Figure 2 panels.
Where [9] appears, read: Homo sapiens, MDA-MB-436, 48 h, 48 h.
Where [10] appears, read: Homo sapiens, MDA-MB-436, 72 h, 72 h.

Structures are written as SMILES. Like-named read-outs stand apart in the source and are kept apart here.

As to `Oc1ccc(/C=C/c2cc(O)cc(O)c2)cc1` [RES, resveratrol, reference compound], the IC50 was determined as 6.27 µM with MDA-MB-231 cells (setting [3]); 32.1 µM with MDA-MB-231 cells (setting [4]); 11.5 µM in the series on MDA-MB-231 cells (MDA-MB-231, 48 h, 48 h, in Figure 2 panels); 6.54 µM in the series on MDA-MB-231 cells (setting [5]); 10.8 µM in the series with MDA-MB-231 cells (setting [6]); 37.5 µM with MDA-MB-436 cells (setting [7]). Further, the IC50 was 9.16 µM in the series on MDA-MB-436 cells (setting [8]); 23.7 µM with MDA-MB-436 cells (setting [9]); 15.7 µM in the series with MDA-MB-436 cells (setting [10]); 131 µM in the series on MCF-7 cells (24 h treatment); 83.9 µM in the series with MCF-7 cells (48 h treatment); 144 µM in the series with MDA-MB-231. The IC50 in series [1] is 17.6 µM.
Regarding `CC(C)/C=C/c1c(O)cc(/C=C/c2ccc(O)cc2)cc1O` [A-3, arachidin-3], the IC50 with MDA-MB-231 cells (setting [3]) amounted to 9.51 µM; with MDA-MB-231 cells (setting [4]), 18.7 µM; with MDA-MB-231 cells (setting [5]) it was 16.2 µM; in the series with MDA-MB-231 cells (setting [6]), 18.7 µM; with MDA-MB-436 cells (setting [7]) it was 11 µM; in the series with MDA-MB-436 cells (setting [8]), 10.9 µM. Also, the IC50 in the series on MDA-MB-436 cells (setting [9]) was 16.7 µM; in the series with MDA-MB-436 cells (setting [10]) it was 19.8 µM; with MDA-MB-436 cells (72 h), 19.8 µM; in series [1], 18.9 µM. Also, the “growth inhibition at low concentrations” value in the series with MDA-MB-231 cells (0.01-10 µM, 72 h) is “no growth inhibition below 10 µM”; with MDA-MB-436 cells (0.01-10 µM, 72 h), “no growth inhibition below 10 µM”. Besides, the “glucuronidated products compared to non-prenylated analogs piceatannol and RES” value in series [2] is “lower glucuronidated products”.

As a reminder, the IC50 is the point on the concentration scale where inhibition reaches its midpoint.
